Where a name gives a salt, the structure may show the parent alone.

Test [1] concerns prototrophic yeast strain (CEN.PK113-7D). The test is described as follows: Propidium iodide fluorescence-based CLS method in yeast (incl. high-throughput screening).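 As to PI intensity: untreated reference is eight DMSO and water control wells per plate.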 Format: cell-based, Saccharomyces cerevisiae. As to conditions: concentration tested 100 μM; for Yeast CLS increase: Yes/No call of the screen; for PI intensity: solvent DMSO or water, chronological age point Day 7 (72 h growth = Day 1), lower = more survival. Here is the method: Yeast strain was recovered from frozen glycerol stock at 30° C. on YPD agar medium. Yeast was left to propagate in SD medium overnight at 30° C. with shaking at 220 revolutions per minute (rpm). Cells propagated overnight were diluted to a starting optical density at 600 nm (OD600) of approximately 0.2 in fresh SD medium to begin the chronological lifespan (CLS) experiments.
(§1) CLS experiments were performed in 96-well plates with 200 μL yeast culture. Cellular inoculums were transferred into 96-well plates containing serially double-diluted concentrations (0 to 10 nM) of rapamycin. Cellular inoculum was transferred into 96-well plates containing serially double-diluted concentrations (0 to 8 mM) of 2,5-anhydro-D-mannitol, D-fructose, D-mannitol, D-maltose, and D-sorbitol in SD medium. Cells were incubated at 30° C., and the growth was measured at different time points. […] Cell survival was quantified at various age time points by three different approaches: (i) PI fluorescence-based method, (ii) outgrowth in YPD liquid medium, and (iii) spotting assay (FIG. 1).
Yeast cells (40 μL) from different age time points were transferred into a second 96-well plate (different to the 96-well plate in which the CLS analysis as outlined above was performed). Cells were washed and incubated in 100 μL 1×phosphate buffered saline (PBS) with propidium iodide (PI) (5 μg/mL) for 15 minutes in the dark. Positive and negative control samples were included for quantitative analysis. Positive control (cells boiled at 100° C. for 15 minutes) was PI-stained and processed in the same 96-well plate. Samples without PI-stained cells served as the negative control. After incubation, cells were washed and resuspended in 100 μL PBS. The fluorescence reading of the samples (excitation and emission wavelengths at 535 nm and 617 nm, respectively) and OD600 were measured with a microplate reader (BioTek, Winooski, Vermont, United States). The fluorescence intensity of each sample was normalized with OD600. The background fluorescence signal of the unstained negative sample was subtracted from the normalized fluorescence intensity of each sample. The obtained fluorescence intensity of the positive control (boiled dead cells) was considered 0% cell survival. Cell death was validated by allowing the boiled dead cells to grow in medium. Cell survival at different age time points of samples were calculated by normalizing the fluorescence intensity with positive control sample (boiled cells).
High-throughput screening of various chemicals was tested using the same protocol for the propidium iodide fluorescence-based method as described above. The prototrophic yeast strain (CEN.PK113-7D) was grown in the synthetic defined medium with different chemical reagents at their respective single testing concentration (Table 1) in addition to eight replicates of DMSO and water controls in 96-well plates at 30° C.

The test system is the same in test [2]. The test is described as follows: Yeast outgrowth in YPD liquid medium (CLS of aged cells). Format: cell-based, Saccharomyces cerevisiae. As to conditions: concentration tested 100 μM; OD600 nm after 24 h in YPD at 30° C.; age point day 14. Here is the method: as §1
Outgrowth (OD600) of aged cells was measured by the microplate reader. Quantification of cell survival for each age point was determined as relative to Day 1 (considered 100% cell survival). This quantification was performed by using the formula,
[formula] • where OutgrowthDay n refers to the OD600 nm absorbance reading recorded on a specific day, OutgrowthDay 1 refers to the OD600 nm absorbance reading recorded on the first day where 100% cell survival is assumed.
The CLS of the aged cells was further determined by the yeast outgrowth in YPD liquid medium method as described above. […] At chronological age point day 14, 3-μL of culture were transferred to a second 96-well plate containing 200 μL YPD medium.

With `COc1ccc(CC(=O)O)cc1OC` [3,4-Dimethoxyphenylacetic acid], in test [1], the “Yeast CLS increase” value was “No” and the PI intensity is reported as 70,394.7. Moreover, the Outgrowth in test [2] is 0.1.

Regarding `O=C(O)c1cc(O)cc(O)c1` [3,5-Dihydroxybenzoic acid], in test [1], the “Yeast CLS increase” value is “No” and the PI intensity was 59,369.7. Besides, the Outgrowth in test [2] turned out to be 0.1.

`N[C@@H](Cc1ccc(O)c(Cl)c1)C(=O)O` [3-Chloro-L-tyrosine]: in test [1], the “Yeast CLS increase” value is “No” and the PI intensity is on record as 67,122.0. The molecule further showed an Outgrowth in test [2] of 0.1.

`CCc1ccc(O)cc1` [4-Ethylphenol]: in test [1], the “Yeast CLS increase” value was “No” and the PI intensity is on record as 58,041.7. Besides, in test [2], the Outgrowth amounted to 0.1.

For `COc1ccc(C=CC(=O)O)cc1` [4-Methoxycinnamic acid], in test [1], the “Yeast CLS increase” value is reported as “No” and the PI intensity was 89,890.5. The Outgrowth in test [2] amounted to 0.1.

With `Cc1cc(=O)oc2cc(O)ccc12` [4-Methylumbelliferone], in test [1], the “Yeast CLS increase” value is “No” and the PI intensity is 90,234.6. The Outgrowth in test [2] was determined as 0.1.

As for `CC(=O)c1ccc(O)c(C(=O)O)c1` [5-Acetylsalicylic acid], in test [1], the “Yeast CLS increase” value was “No” and the PI intensity was 63,538.6. Further, in test [2], the Outgrowth came out at 0.1.

As to `CC(C)CCC[C@@H](C)[C@H]1CC[C@H]2[C@@H]3CC[C@H]4CC(=O)CC[C@]4(C)[C@H]3CC[C@]12C` [5α-Cholestan-3-one], in test [1], the “Yeast CLS increase” value is reported as “No” and the PI intensity is 62,022.6. The Outgrowth in test [2] is listed as 0.1.

As for `C[C@H](O)[C@H](O)c1cnc2nc(N)[nH]c(=O)c2n1` [6-Biopterin], in test [1], the “Yeast CLS increase” value was “No” and the PI intensity was 75,974.5. In test [2], this molecule had an Outgrowth of 0.1.

Consider `CC(C)CCC[C@](C)(O)[C@H]1CC[C@H]2[C@@H]3CC=C4C[C@@H](O)CC[C@]4(C)[C@H]3CC[C@@]21C` [20(S)-Hydroxycholesterol], for which, in test [1], the “Yeast CLS increase” value is “No” and the PI intensity is on record as 75,450.9. Moreover, the Outgrowth in test [2] is 0.1.

With `NC[C@H](CC(=O)O)c1ccc(Cl)cc1` [(R)-Baclofen, reference compound], in test [1], the “Yeast CLS increase” value is given as “No” and the PI intensity was 61,049.3. Also, in test [2], the Outgrowth was 0.1.

Consider `CC(C)=CCC[C@@H](C)CCO` [(R)-Citronellol], for which, in test [1], the “Yeast CLS increase” value is reported as “No” and the PI intensity is listed as 75,290.6. Also, the Outgrowth in test [2] is listed as 0.1.

On to `O=C(O)[C@H]1CCCN1` [(R)-pyrrolidine-2-carboxylic acid], for which, in test [1], the “Yeast CLS increase” value is “No” and the PI intensity is given as 80,551.7. Moreover, the Outgrowth in test [2] is recorded as 0.1.

Turning to `O=C(O)[C@@H](O)Cc1ccccc1` [(S)-2-Hydroxy-3-phenylpropanoic acid], in test [1], the “Yeast CLS increase” value is recorded as “No” and the PI intensity is 72,969.5. The same molecule returned an Outgrowth in test [2] of 0.1.

Take `Cn1cc(C[C@H](N)C(=O)O)c2ccccc21` [(S)-Indoximod]: in test [1], the “Yeast CLS increase” value is reported as “No” and the PI intensity is recorded as 78,648.2. In test [2], this molecule yielded an Outgrowth of 0.1.

For the molecule `Oc1cc(O)c2c(c1)O[C@H](c1cc(O)c(O)c(O)c1)[C@H](O)C2` [(−)-Epigallocatechin], in test [1], the “Yeast CLS increase” value is recorded as “No” and the PI intensity is 62,025.6. The same molecule had an Outgrowth in test [2] of 0.1.

As for `N[C@H](C(=O)O)[C@@H]1CC(Cl)=NO1` [Acivicin], in test [1], the “Yeast CLS increase” value is recorded as “Yes” and the PI intensity is given as 41,066.2. For the same molecule, in test [2], the Outgrowth was 1.0.

With `CCCCC[C@H](CC(=O)NO)C(=O)N[C@H](C(=O)N1CCC[C@H]1CO)C(C)C` [Actinonin], in test [1], the “Yeast CLS increase” value is listed as “No” and the PI intensity is on record as 75,254.2. Also, the Outgrowth in test [2] was 0.1.

As to `COCCCOc1cc(C[C@@H](C[C@H](N)[C@@H](O)C[C@H](C(=O)NCC(C)(C)C(N)=O)C(C)C)C(C)C)ccc1OC.COCCCOc1cc(C[C@@H](C[C@H](N)[C@@H](O)C[C@H](C(=O)NCC(C)(C)C(N)=O)C(C)C)C(C)C)ccc1OC.O=C(O)/C=C/C(=O)O` [Aliskiren (hemiumarate), reference compound], in test [1], the “Yeast CLS increase” value is recorded as “No” and the PI intensity is given as 73,607.3. In test [2], this molecule gave an Outgrowth of 0.1.

Turning to `O=C1c2c(O)cccc2[C@@H]([C@@H]2O[C@H](CO)[C@@H](O)[C@H](O)[C@H]2O)c2cc(CO)cc(O)c21` [Aloin B], in test [1], the “Yeast CLS increase” value is “No” and the PI intensity is listed as 89,712.0. In test [2], the Outgrowth came out at 0.1.

Regarding `Nc1c(Br)cc(Br)cc1CN[C@H]1CC[C@H](O)CC1` [Ambroxol (hydrochloride), reference compound], in test [1], the “Yeast CLS increase” value is recorded as “No” and the PI intensity was 63,509.0. Besides, the Outgrowth in test [2] came to 0.1.

In the case of `NCCCNCCSP(=O)(O)O` [Amifostine, reference compound], in test [1], the “Yeast CLS increase” value is given as “No” and the PI intensity is given as 69,013.2. Further, in test [2], the Outgrowth is 0.2.

With `O=C(O)c1ccc2c(c1)C(=O)c1ccccc1C2=O` [Anthraquinone-2-carboxylic acid], in test [1], the “Yeast CLS increase” value is “No” and the PI intensity was 96,099.2. Besides, the Outgrowth in test [2] worked out at 0.1.

Turning to `OCC1=C[C@@H](O)[C@@H]2C=CO[C@@H](O[C@@H]3O[C@H](CO)[C@@H](O)[C@H](O)[C@H]3O)[C@H]12` [Aucubin], in test [1], the “Yeast CLS increase” value was “No” and the PI intensity is reported as 58,414.0. Further, the Outgrowth in test [2] came out at 0.1.

With `NC(=O)[C@@H]1CC[C@@H]2CN1C(=O)N2OS(=O)(=O)O` [Avibactam (sodium), reference compound], in test [1], the “Yeast CLS increase” value is “No” and the PI intensity is 73,562.3. This molecule came in with an Outgrowth in test [2] of 0.1.

With `O=c1c(O[C@@H]2O[C@H](CO)[C@@H](O)[C@H](O)[C@H]2O[C@@H]2O[C@H](CO)[C@@H](O)[C@H](O)[C@H]2O)c(-c2ccc(O)c(O)c2)oc2cc(O)cc(O)c12` [Baimaside], in test [1], the “Yeast CLS increase” value is “No” and the PI intensity is listed as 61,895.7. The Outgrowth in test [2] is on record as 0.2.

On to `CC(=O)OCc1ccccc1` [Benzyl acetate], for which, in test [1], the “Yeast CLS increase” value is recorded as “No” and the PI intensity is recorded as 74,321.9. For the same molecule, the Outgrowth in test [2] was 0.1.

Turning to `C[C@@H](O)[C@H]1C(=O)N2C(C(=O)[O-])=C(SC3Cn4cnc[n+]4C3)[C@H](C)[C@H]12` (stereo partly drawn) [Biapenem, reference compound], in test [1], the “Yeast CLS increase” value is “No” and the PI intensity is given as 71,409.3. For the same molecule, in test [2], the Outgrowth was determined as 0.1.

For the molecule `OC(CCN1CCCCC1)(c1ccccc1)C1CC2C=CC1C2` (stereo not drawn) [Biperiden (Hydrochloride), reference compound], in test [1], the “Yeast CLS increase” value was “No” and the PI intensity is 67,178.1. Moreover, the Outgrowth in test [2] was determined as 0.2.

For the molecule `O=[N+]([O-])C(Br)(CO)CO` [Bronopol], in test [1], the “Yeast CLS increase” value is “No” and the PI intensity is recorded as 79,284.9. In addition, in test [2], the Outgrowth was 0.1.

Take `C=C1CC[C@H](O)C/C1=C/C=C1\CCC[C@]2(C)[C@@H]([C@H](C)CCCC(C)(C)O)CC[C@@H]12` [Calcifediol, reference compound]: in test [1], the “Yeast CLS increase” value is on record as “No” and the PI intensity was 60,747.4. Further, the Outgrowth in test [2] is 0.2.

(Values after US20250161338A1, “Compounds for Anti-aging Intervention” (AGENCY FOR SCIENCE, TECHNOLOGY AND RESEARCH, priority 2022, published 2025).)
